Patent publication US7655598B2, “Herbicide composition” (Sumitomo Chemical Company, Limited, priority 2001, dated 2010)

Test system: sickle pod
Assay: Test Example 1: foliar spray herbicide effect on sickle pod in greenhouse pots
Type: in vivo, sickle pod (Cassia obtusifolia)
Settings: evaluated 5 days after treatment, scale 0-10
Procedure: Evaluation of phytotoxicity against a crop was shown by “no” when almost no phytotoxicity was observed, “low” when a low level phytotoxicity was observed, “medium” when a medium level phytotoxicity was observed and “high” when a high level phytotoxicity was observed.
A plastic pot of 11 cm in diameter and 8 cm in depth was filled with field soil. A seed of sickle pod was sown and grown in a greenhouse for 28 days.
An emulsion of Compound A-1 was prepared by sufficiently mixing 5 parts of Compound A-1, 6 parts of Sorpol 3005X (surfactant, produced by Toho Chemical) and 89 parts of xylene.
Each of • single use of an emulsion of Compound A-1, • single use of an emulsion of Oxyfluorfen (commercial name: Goal, produced by Rohm & Hass Co., containing 23% of Oxyfluorfen), and • a mixed composition of an emulsion of Compound A-1 and an emulsion of Oxyfluorfen, • were diluted with water containing 1% Agri-dex (produced by Helena). Respective dilutions were uniformly sprayed from upper side onto foliages of sickle pod grown as described above with a small sprayer such that the amounts of the active ingredients were the amounts shown in Table 4.
After the treatment, they were raised in a greenhouse for 5 days and the effect against weeds was evaluated.

CCOc1cc(Oc2ccc(C(F)(F)F)cc2Cl)ccc1[N+](=O)[O-] [Oxyfluorfen, 2-chloro-1-(3-ethoxy-4-nitrophenoxy)-4-(trifluoromethyl)benzen]
Herbicide Effect sickle pod (500 g/ha active ingredient): 3
Herbicide Effect sickle pod (2000 g/ha active ingredient): 3
